Measured values taken from patent publication US7696236B2, “Method of providing pirfenidone therapy to a patient” (InterMune, Inc., priority 2006, dated 2010).

Columns and labels:
[1] = system: fibrogenic cytokines such as TGF-β1, bFGF, PDGF, and EGF; settings: Zhang S et al. 1998; cited from earlier work
[2] = adverse events associated with pirfenidone therapy in patients; format: in vivo, patient; settings: dosing escalation scheme described herein (up to 2,403 mg per day, full dosage about Day 15)
Method: As an investigational drug, pirfenidone is provided in tablet and capsule forms principally for oral administration. Various formulations have been tested and adopted in clinical trials and other research and experiments. […] Many of these effects can interfere with everyday activities and quality of life. These effects appear to be dose related. The adverse reactions associated with pirfenidone therapy are exacerbated when pirfenidone is administered at these higher doses.
The present invention overcomes the unmet clinical need by providing an improved, optimized dose escalation scheme for the administration of pirfenidone. The dose escalation scheme of the present invention provides pirfenidone in an amount such that the full maximum dosage is not reached for at least one week. In a preferred embodiment, the full maximum dosage of pirfenidone is not reached until about Day 15 of treatment. The method of the present invention allows for a maximum dosage of 2,403 mg of pirfenidone per day to be administered to a patient and also reduces the incidence of adverse events associated with the administration of pirfenidone by more accurately matching dose escalation with tolerance development in the patient. […]

[3] = system: TNF-α; settings: from macrophages and other cells; Cain et al. 1998; cited from earlier work
[4] = oral tablet and capsule forms, clinical trials; effects appear to be dose related; cited from earlier work

For Cc1ccc(=O)n(-c2ccccc2)c1 [pirfenidone, 5-methyl-1-phenyl-2-(1H)-pyridone], the “excessive biosynthesis or release of various fibrogenic cytokines” value [1] is given as “inhibits”, the “adverse events, such as somnolence and photosensitivity reaction, as the dosage escalates” value [2] is given as “decrease” and the “synthesis and release of excessive amounts of TNF-α” value [3] is given as “blocks”. For the same compound, the “most common adverse reactions or events associated with pirfenidone therapy” value [4] was “gastrointestinal upset, nausea, fatigue, somnolence, dizziness, headache, and photosensitivity rash”.
